Measured values as given in publication PMC10381309 (Journal of Fungi, 2023).
In brackets after ≈: the same amount, converted by molar mass.

Assays:
Format in all cases: cell-based
[1] = tested on: Cladophialophora carrionii (CFP 00910); test: Minimum fungicidal concentration determination
Description: The MFC was determined as the lowest drug concentration without fungal growth on Sabouraud agar after five days of incubation at 35 °C.

[2] = tested on: Exophiala heteromorpha (ATCC 28180); test: MIC determination (EUCAST, minor modifications); conditions: for Selectivity Index (SI): E. heteromorpha
Description: (§1) Minimum inhibitory concentrations (MICs) were determined using the method proposed by the European Committee on Antimicrobial Susceptibility Testing (EUCAST), with minor modifications. Hit drugs were serially diluted (80 μM to 0.15625 μM) in RPMI 1640 (twice concentrated, pH 7; supplemented with 2% glucose) buffered with MOPS in 96-well plates. The inoculums of all strains were prepared following the EUCAST protocol. Plates were incubated at 35 °C for 72–96 h. The MIC of the NCC substances was determined as the lowest concentration capable of inhibiting 100% of fungal growth when compared to the growth control well. MIC values were determined in duplicate.

[3] = tested on: Rhinocladiela similis (CFP 00790); test: MIC determination (EUCAST, minor modifications); conditions: for Selectivity Index (SI): R. similis
Description: as §1

[4] = tested on: Cladophialophora carrionii (CFP 00910); test: MIC determination (EUCAST, minor modifications); conditions: for Selectivity Index (SI): C. carrionii
Description: as §1

[5] = tested on: Fonsecaea nubica (CFP 00912); test: MIC determination (EUCAST, minor modifications); conditions: for Selectivity Index (SI): F. nubica
Description: as §1

[6] = tested on: Fonsecaea monophora (CFP 00911); test: MIC determination (EUCAST, minor modifications); conditions: for Selectivity Index (SI): F. monophora
Description: as §1

[7] = tested on: Exophiala dermatitidis (ATCC 28869); test: MIC determination (EUCAST, minor modifications); conditions: for Selectivity Index (SI): E. dermatitidis
Description: as §1

[8] = tested on: Fonsecaea pedrosoi (CFP 00791); test: MIC determination (EUCAST, minor modifications); conditions: for Selectivity Index (SI): F. pedrosoi
Description: as §1

[9] = tested on: Phialophora verrucosa (CFP 00937); test: MIC determination (EUCAST, minor modifications); conditions: for Selectivity Index (SI): P. verrucosa
Description: as §1

CCCSc1ccc2nc(NC(=O)OC)[nH]c2c1 [Albendazole]
MFC:MIC Ratio ([1]; C. carrionii): 8
MFC ([1]; Cladophialophora carrionii): 20 µM (≈ 5.31 µg/mL)
Selectivity Index (SI) ([2]; CC50 HaCat 96 h / MIC): 34.04
Selectivity Index (SI) ([2]; CC50 Vero 24 h / MIC): 150.94
Selectivity Index (SI) ([2]; CC50 Vero 96 h / MIC): 104.62
MIC ([2]; Exophiala heteromorpha, ATCC28180): 2.5 µM (≈ 0.663 µg/mL)
MIC [3]: 1.25 µM (≈ 0.332 µg/mL)
Selectivity Index (SI) ([3]; CC50 HaCat 96 h / MIC): 68.08
Selectivity Index (SI) ([3]; CC50 Vero 24 h / MIC): 301.88
Selectivity Index (SI) ([3]; CC50 Vero 96 h / MIC): 209.24
Selectivity Index (SI) ([4]; CC50 HaCat 96 h / MIC): 34.04
Selectivity Index (SI) ([4]; CC50 Vero 24 h / MIC): 150.94
Selectivity Index (SI) ([4]; CC50 Vero 96 h / MIC): 104.62
MIC ([4]; Cladophialophora carrionii): 2.5 µM (≈ 0.663 µg/mL)
Selectivity Index (SI) ([5]; CC50 HaCat 96 h / MIC): 136.16
Selectivity Index (SI) ([5]; CC50 Vero 24 h / MIC): 603.76
Selectivity Index (SI) ([5]; CC50 Vero 96 h / MIC): 418.49
MIC ([5]; Fonsecaea nubica): 0.625 µM (≈ 0.166 µg/mL)
Selectivity Index (SI) ([6]; CC50 HaCat 96 h / MIC): 136.16
Selectivity Index (SI) ([6]; CC50 Vero 24 h / MIC): 603.76
Selectivity Index (SI) ([6]; CC50 Vero 96 h / MIC): 418.49
MIC ([6]; Fonsecaea monophora): 0.625 µM (≈ 0.166 µg/mL)
Selectivity Index (SI) ([7]; CC50 HaCat 96 h / MIC): 34.04
Selectivity Index (SI) ([7]; CC50 Vero 24 h / MIC): 150.94
Selectivity Index (SI) ([7]; CC50 Vero 96 h / MIC): 104.62
MIC ([7]; Exophiala dermatitidis, ATCC28869): 2.5 µM (≈ 0.663 µg/mL)
Selectivity Index (SI) ([8]; CC50 HaCat 96 h / MIC): 68.08
Selectivity Index (SI) ([8]; CC50 Vero 24 h / MIC): 301.88
Selectivity Index (SI) ([8]; CC50 Vero 96 h / MIC): 209.24
MIC ([8]; Fonsecaea pedrosoi): 1.25 µM (≈ 0.332 µg/mL)
Selectivity Index (SI) ([9]; CC50 HaCat 96 h / MIC): 136.16
Selectivity Index (SI) ([9]; CC50 Vero 24 h / MIC): 603.76
Selectivity Index (SI) ([9]; CC50 Vero 96 h / MIC): 418.49
MIC ([9]; Phialophora verrucosa): 0.625 µM (≈ 0.166 µg/mL)
